In patent US20090030066A1, “SMALL MOLECULES FOR THE PROTECTION OF PANCREATIC CELLS” (priority 2007, published 2009):

How the values were obtained:
NIT-1 β-cells = assay: MTT viability of STZ-treated NIT-1 islet β-cells; assay type: cell-based, mouse; conditions: for A540 (MTT, relative number of viable cells): 30 h, 2% serum, mean ± std. dev. n=8
Source text: In the Examples below, an MTT assay was used to determine the relative number of viable cells after treatments. This calorimetric assay is based on the ability of living cells, but not dead cells, to reduce 3-(4,5-dimethyl thiazol-2-yl)-2,5-diphenyltetrazolium bromide. [Carmichael, J, De Graff, W. G., Gazdar, A. F., Minna, J. D. and Mitchell, J. B. (1987) Evaluation of tetrazolium-based semiautomated calorimetric assay: Assessment of chemosensitivity testing. Cancer Res. 47, 936-942], which is hereby incorporated by reference. For this assay, cells were plated in 96-well plates, and the MTT assay was performed as described in the above article both in untreated and treated cell cultures. The MTT assay also was performed at the time when the treatment was started to allow for assessment of the proliferation and survival rates in the control and treated cell cultures. In the MTT assay, higher values mean proportionally higher numbers of viable cells.
NIT-1 β-cells, originally isolated from transgenic NOD mouse carrying SV 40 large T antigen gene on a rat insulin promoter, were obtained from American Type Culture Collection (ATCC CRL-2055). NIT-1 cells contain and secrete insulin, while at the same time they retained their ability to proliferate in the presence of an appropriate stimulus. The cells, maintained in Ham's F12K medium containing 10% heat-inactivated dialyzed fetal bovine serum, were used between passages 32-35.
In this experiment, NIT-1 cells were seeded into 96-well plates. After 24 hours, the medium was replaced with fresh 2% fetal bovine serum containing medium, followed by treatments with 2-50 μM of CCompound1 and 30 min later with 20 mM STZ. Treatments were for 30 hours followed by the MTT assay to determine the relative number of viable cells (expressed as A540).

STZ-treated mice [1] = assay: Blood glucose and body weight in STZ-treated mice, first experiment (not fasted); assay type: in vivo; conditions: for Body weight: in g
Method: Male C57BL/6 mice (12 weeks old) were housed in a specific pathogen-free facility with a 12-h light/dark cycle and given free access to food and water. Animals weighing between 28-31 g were selected for the experiments. In each group, at the start of experiment the body weight among individual animals differed by less than 1-g.
One group of mice received no treatment over the entire experiment. A second group received only 4.5 mg per kg of CCompound1 on days −2, −1, 0, +1, +2, +3, +4, +5, +6 and +7. A third/fourth/fifth/sixth group of animals were treated i.p. with 210 mg/kg of STZ on day 0. The fourth, fifth, and sixth group of animals also received 4.5 mg per kg each of CCompound1 (CC1; 4th group) or CCompound3 (CC3; 5th group), or CCompound19 (CC19; 6th group) on days −2, −1, 0, +1, +2, +3, +4, +5, +6 and +7 (with STZ treatment given on day 0). Each group consisted of 7 animals. Body weight was measured regularly.
CC compounds were dissolved in physiological saline while STZ was dissolved in 100 mM sodium citrate (pH 4.5). All compounds were injected intraperitoneally in 0.5 ml volume. Control animals were injected physiological saline (0.5 ml) on the same days when other groups were treated with CC compounds.
Blood samples were taken from the eye (canthus) of the animals on days −1, 0, +1, +2, +3, +7 and +10, and glucose concentrations in whole blood samples were immediately measured with the commercially available fast Glucose C test. The animals were not fasted prior to taking the blood samples. The results are expressed as the mean values from 7 animals ±std. dev. (S.D.).

STZ-treated mice [2] = assay: STZ-treated mice, second experiment: body weight to day 80 and survival; assay type: in vivo; conditions: for survivors: 80th day
Source text: In a second similar experiment performed with 6 mice in each group, the changes in body weight were followed for up to 80 days (when the last STZ-treated mouse died), and survival was followed for up to 100 days.
For the body weight (on the 80th day) and survival the following values were obtained: Untreated (6 survivors), 37.7 g; STZ-treated (one last survivor died on day 80, others survived for 22, 25, 27, 60, 75 days), 26.0 g; CCompound1-treated (6 survivors), 36.0 g; STZ+CCompound1 treated (6 survivors), 33.4 g; STZ+CCompound3-treated (5 survivors; one mouse died on day 78), 32.5 g. At the start of the experiment (day 0), the average body weight ranged from 28.6 to 29.8 g. Accordingly, by day 80, STZ-treated animals that were also treated with CCompound1 and CCompound3 gained about 50% of the weight gained by the untreated animals.

[3] = STZ + compound, 6 mice per group

## Cc1c(OCC(O)C[N+](C)(C)C)cc2c(=O)c3ccccc3sc2c1C.[Cl-] (stereo not drawn) [CCcompound1, [3-(3,4-Dimethyl-9-oxo-9H-thioxanthen-2-yloxy)-2-hydroxypropyl]trimethyl-ammonium chloride]
NIT-1 β-cells; 10 μM
  effect on the inhibitory effects of STZ on cell proliferation: almost fully reverses
NIT-1 β-cells; 50 μM
  effect on the inhibitory effects of STZ on cell proliferation: added to the inhibitory effects of STZ
NIT-1 β-cells; 2-5 μM
  effect on the inhibitory effects of STZ on cell proliferation: partially reverses
NIT-1 β-cells; STZ 20 mM + compound 2 μM
  A540 (MTT, relative number of viable cells): 0.934 ± 0.053
NIT-1 β-cells; STZ 20 mM + compound 5 μM
  A540 (MTT, relative number of viable cells): 1.078 ± 0.068
NIT-1 β-cells; STZ 20 mM + compound 10 μM
  A540 (MTT, relative number of viable cells): 1.144 ± 0.056
NIT-1 β-cells; STZ 20 mM + compound 50 μM
  A540 (MTT, relative number of viable cells): 0.718 ± 0.071
STZ-treated mice [1]; 4.5 mg/kg i.p., no STZ
  effect of compound alone on blood glucose level: no effect on blood glucose level
STZ-treated mice [1]; STZ 210 mg/kg + compound 4.5 mg/kg i.p., day 0, unit not given
  Body weight: 28.2 ± 0.7
STZ-treated mice [1]; STZ 210 mg/kg + compound 4.5 mg/kg i.p., day +1, unit not given
  Body weight: 28.0 ± 0.7
STZ-treated mice [1]; STZ 210 mg/kg + compound 4.5 mg/kg i.p., day +2, unit not given
  Body weight: 26.9 ± 0.8
STZ-treated mice [1]; STZ 210 mg/kg + compound 4.5 mg/kg i.p., day +3, unit not given
  Body weight: 26.9 ± 0.5
STZ-treated mice [1]; STZ 210 mg/kg + compound 4.5 mg/kg i.p., day +7, unit not given
  Body weight: 27.1 ± 0.7
STZ-treated mice [1]; STZ 210 mg/kg + compound 4.5 mg/kg i.p., day +10, unit not given
  Body weight: 27.2 ± 0.9
STZ-treated mice [1]; STZ 210 mg/kg i.p. day 0 + compound 4.5 mg/kg i.p. days −2 to +7, day 0
  Blood glucose: 4.1 ± 0.4 mM
STZ-treated mice [1]; STZ 210 mg/kg i.p. day 0 + compound 4.5 mg/kg i.p. days −2 to +7, day +1
  Blood glucose: 5.7 ± 0.5 mM
STZ-treated mice [1]; STZ 210 mg/kg i.p. day 0 + compound 4.5 mg/kg i.p. days −2 to +7, day +2
  Blood glucose: 8.2 ± 1.4 mM
STZ-treated mice [1]; STZ 210 mg/kg i.p. day 0 + compound 4.5 mg/kg i.p. days −2 to +7, day +3
  Blood glucose: 10.1 ± 1.5 mM
STZ-treated mice [1]; STZ 210 mg/kg i.p. day 0 + compound 4.5 mg/kg i.p. days −2 to +7, day +7
  Blood glucose: 10.9 ± 1.2 mM
STZ-treated mice [1]; STZ 210 mg/kg i.p. day 0 + compound 4.5 mg/kg i.p. days −2 to +7, day +10
  Blood glucose: 11.0 ± 0.8 mM
STZ-treated mice [1]; STZ 210 mg/kg i.p. day 0 + compound 4.5 mg/kg i.p. days −2 to +7, day −1
  Blood glucose: 4.6 ± 0.7 mM
STZ-treated mice [1]; STZ-induced type 1 diabetes model
  protection of islet β-cells: protected islet β-cells
STZ-treated mice [1]; STZ-treated animals, 4.5 mg/kg i.p.
  effect on STZ-induced rise of blood glucose: prevent drastic increase in blood glucose level
STZ-treated mice [1]; STZ-treated mice, to day 10
  effect on STZ-induced body weight loss: reduced the effect of STZ on body weight
STZ-treated mice [1]; compound alone 4.5 mg/kg i.p. days −2 to +7, no STZ, day 0
  Blood glucose: 4.5 ± 0.4 mM
STZ-treated mice [1]; compound alone 4.5 mg/kg i.p. days −2 to +7, no STZ, day +1
  Blood glucose: 4.7 ± 0.6 mM
STZ-treated mice [1]; compound alone 4.5 mg/kg i.p. days −2 to +7, no STZ, day +2
  Blood glucose: 4.6 ± 0.4 mM
STZ-treated mice [1]; compound alone 4.5 mg/kg i.p. days −2 to +7, no STZ, day +3
  Blood glucose: 4.7 ± 0.4 mM
STZ-treated mice [1]; compound alone 4.5 mg/kg i.p. days −2 to +7, no STZ, day +7
  Blood glucose: 4.6 ± 0.4 mM
STZ-treated mice [1]; compound alone 4.5 mg/kg i.p. days −2 to +7, no STZ, day +10
  Blood glucose: 4.3 ± 0.6 mM
STZ-treated mice [1]; compound alone 4.5 mg/kg i.p. days −2 to +7, no STZ, day −1
  Blood glucose: 4.5 ± 0.4 mM
STZ-treated mice [1]; compound alone 4.5 mg/kg i.p., no STZ, day 0, unit not printed in table (animals 28-31 g)
  Body weight: 28.2 ± 0.9
STZ-treated mice [1]; compound alone 4.5 mg/kg i.p., no STZ, day +1, unit not given
  Body weight: 28.7 ± 0.4
STZ-treated mice [1]; compound alone 4.5 mg/kg i.p., no STZ, day +2, unit not given
  Body weight: 28.1 ± 0.4
STZ-treated mice [1]; compound alone 4.5 mg/kg i.p., no STZ, day +3, unit not given
  Body weight: 28.7 ± 0.7
STZ-treated mice [1]; compound alone 4.5 mg/kg i.p., no STZ, day +7, unit not given
  Body weight: 29.5 ± 0.8
STZ-treated mice [1]; compound alone 4.5 mg/kg i.p., no STZ, day +10, unit not given
  Body weight: 30.3 ± 1.4
STZ-treated mice [2]; STZ + compound
  weight gained by day 80 relative to the weight gained by the untreated animals: about 50%
STZ-treated mice [2]; [3]
  body weight on the 80th day: 33.4 g
  survivors: 6
STZ-treated mice [2]; compound alone, no STZ, 6 mice
  body weight on the 80th day: 36.0 g
STZ-treated mice [2]; compound alone, no STZ, 6 mice per group
  survivors: 6
